Experimental findings from ChEMBL document CHEMBL4177716, “Design, synthesis and pharmacological evaluation of some novel indanone derivatives as acetylcholinesterase inhibitors for the management of cognitive dysfunction” (Bioorg Med Chem, 2018) are described below.

For assay [1], the target named is T1, Acetylcholinesterase (Mus musculus) (UniProt P21836).
T1 sequence (whole entry): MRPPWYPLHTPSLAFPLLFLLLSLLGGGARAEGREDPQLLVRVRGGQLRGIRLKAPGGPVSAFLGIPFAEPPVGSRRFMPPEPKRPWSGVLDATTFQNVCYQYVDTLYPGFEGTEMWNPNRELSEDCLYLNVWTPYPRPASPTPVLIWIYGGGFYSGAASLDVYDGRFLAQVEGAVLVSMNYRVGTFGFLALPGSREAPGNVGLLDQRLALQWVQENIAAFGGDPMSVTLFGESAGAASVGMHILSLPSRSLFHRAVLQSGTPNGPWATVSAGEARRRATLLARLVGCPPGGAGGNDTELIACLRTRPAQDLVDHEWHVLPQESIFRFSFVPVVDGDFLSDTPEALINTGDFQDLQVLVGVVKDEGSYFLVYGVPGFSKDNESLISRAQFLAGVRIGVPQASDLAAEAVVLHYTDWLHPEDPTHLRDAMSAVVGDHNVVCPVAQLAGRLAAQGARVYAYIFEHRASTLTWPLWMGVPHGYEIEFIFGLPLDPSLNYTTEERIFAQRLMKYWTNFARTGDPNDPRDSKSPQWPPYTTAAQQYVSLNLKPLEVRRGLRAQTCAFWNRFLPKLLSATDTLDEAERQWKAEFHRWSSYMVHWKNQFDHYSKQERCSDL
As to the kind of experiment: Inhibition of AchE in albino LACA mouse brain at 10^-3 M using acetylthiocholine iodide as substrate incubated for 10 mins measured for 2 mins by Ellman's method relative to control.

The target in a further assay is T2, Acetylcholinesterase (Mus musculus, UniProt P21836).
T2 sequence (P21836 whole entry): T1 sequence (whole entry)
On the set-up: species or system LACA.

Assay [2] deals with Mus musculus. As to the kind of experiment: Cognition enhancing effect in albino mouse assessed as reversal of scopolamine-induced memory deficit by measuring basal latency time at 0.5 mg/kg, ip treated 5 mins post scopolamine challenge by step down passive avoidance test (reference value: 63.93 +/- 2.6 sec). Format: functional.
In assay [3] the test system is Mus musculus. As to the kind of experiment: Cognition enhancing effect in albino mouse assessed as reversal of scopolamine-induced memory deficit by measuring latency time at 0.5 mg/kg, ip treated 5 mins post scopolamine challenge by step down passive avoidance test (reference value: 68.16 +/- 0.4 sec). Format: functional.
Assay [4] relates to Mus musculus. The assay is described as follows: Cognition enhancing effect in albino mouse assessed as reversal of scopolamine-induced memory deficit by measuring reduction in number of mistake at 0.5 mg/kg, ip treated 5 mins post scopolamine challenge by step down passive avoidance test. Format: functional, organism-based.
Assay [5] has as its target T1, Acetylcholinesterase (Mus musculus). To be noted: Brain, at 1 µM.
Assay [6] has the same target. To be noted: Brain, at 5 µM.
The target is the same in assay [7]. To be noted: Brain, at 10 µM.
The target is the same in assay [8]. Conditions: Brain, at 25 µM.
Assay [9] shares this target. Conditions: Brain, at 50 µM.

The source made the active and inactive calls. The rule behind the calls is not given here.

In assay [1], `COc1cc2c(cc1OC)C(=O)C(CC1CCN(CC(=O)Nc3ccc(C)cc3)CC1)C2` (stereo not given) registered an inhibition of 13.9%.

Molecule `O=C(Oc1cccc(/C=C2\Cc3ccccc3C2=O)c1)c1cc(Cl)cc(Cl)c1` registered an IC50 on Acetylcholinesterase of 43.3 µM. The Time worked out at 19.86 s in the assay with Mus musculus [2] and 12.65 s in the assay with Mus musculus [3]. For the same molecule, the result with Mus musculus [4] was Active. Further, the inhibition in assay [5] is 37%; in assay [6] it was 41.9%; in assay [7], 33.9%; in assay [8], 43.5%; in assay [9], 51.6%.

As for `O=C(Oc1cccc(/C=C2\Cc3ccccc3C2=O)c1)c1cc(C(F)(F)F)cc(C(F)(F)F)c1`, the midpoint of inhibition against Acetylcholinesterase, the IC50, lay at 12 µM. For the same molecule, the values for the Time in the assay on Mus musculus [2] and with Mus musculus [3] were 12.63 s and 6.98 s, respectively. In the assay on Mus musculus [4], the result was Active. Moreover, the inhibition in assay [5] was determined as 38.7%; in assay [6], 46.8%; in assay [7], 53.2%; in [8], 59.7%; in assay [9], 67.7%.

`COc1cc2c(cc1OC)C(=O)C(CC1CCN(CC(=O)Nc3ccc(F)cc3)CC1)C2` (stereo not given): the inhibition in assay [1] is 6.19%.

As to `COc1cc2c(cc1OC)C(=O)C(CC1CCN(CC(=O)Cc3nc4ccc(F)cc4s3)CC1)C2` (stereo not given), in assay [1], the inhibition worked out at 1.24%.

`COc1cc(C(=O)Oc2cccc(/C=C3\Cc4ccccc4C3=O)c2)cc(OC)c1OC` gave a half-inhibitory concentration (IC50) at Acetylcholinesterase of 14.1 µM. Moreover, the Time stood at 13.81 s in the assay with Mus musculus [2] and 6.08 s in the assay on Mus musculus [3]. In addition, in the assay with Mus musculus [4], the result was Active. The inhibition worked out at 69.1% in assay [5]; 32.2% in [6]; 72.1% in [7]; 78.9% in assay [8]; 32.9% in [9].

In turn, `COc1cc2c(cc1OC)C(=O)C(CC1CCN(CC(=O)Nc3ccc(Cl)cc3)CC1)C2` (stereo not given) showed an inhibition in [1] of 2.74%.

In turn, `COc1ccc(NC(=O)CN2CCC(CC3Cc4cc(OC)c(OC)cc4C3=O)CC2)cc1OC` (stereo not given) showed an inhibition in [1] of 7.33%.

At Acetylcholinesterase, `O=C(Oc1cccc(/C=C2\Cc3ccccc3C2=O)c1)c1cccc(CCl)c1` displayed an IC50 of 27.1 µM. In addition, the Time with Mus musculus [2] is on record as 20.86 s; with Mus musculus [3], 11.65 s. In addition, the result with Mus musculus [4] was Active. Also, the inhibition in [5] came out at 75.9%; in assay [6], 70.6%; in [7], 56.3%; in assay [8], 72.9%; in assay [9] it was 59.3%.

On Acetylcholinesterase, `O=C(Oc1cccc(/C=C2\Cc3ccccc3C2=O)c1)c1ccc([N+](=O)[O-])cc1` yielded a half-maximal inhibitory concentration (IC50) of 48.8 µM. Also, the Time in the assay on Mus musculus [2] amounted to 14.23 s; in the assay on Mus musculus [3], 7.98 s. Moreover, in the assay on Mus musculus [4], the result was Active. Also, the inhibition in assay [5] was 72.1%; in [6], 68.3%; in [7], 65.3%; in assay [8] it was 60.8%; in [9], 51%.

Molecule `COc1ccc2nc(CC(=O)CN3CCC(CC4Cc5cc(OC)c(OC)cc5C4=O)CC3)sc2c1` (stereo not given) returned an inhibition in assay [1] of 3.72%.

The molecule `O=C(Oc1cccc(/C=C2\Cc3ccccc3C2=O)c1)c1ccccc1F` came in with a half-maximal inhibitory concentration (IC50) against Acetylcholinesterase of 14.1 µM. In addition, the Time in the assay on Mus musculus [2] is given as 13.72 s; in the assay on Mus musculus [3], 5.9 s. For the same molecule, in the assay on Mus musculus [4], the outcome was Active. The inhibition in [5] was found to be 80.4%; in assay [6], 48.8%; in assay [7], 40.5%; in [8] it was 35.2%; in assay [9], 32.9%.

For `COc1cc2c(cc1OC)C(=O)C(CC1CCN(CC(=O)Cc3nc4cc(OC)c(OC)cc4s3)CC1)C2` (stereo not given), the inhibition in assay [1] was found to be 3.2%.

`O=C(Oc1cccc(/C=C2\Cc3ccccc3C2=O)c1)c1ccc(CCl)cc1` registered an IC50 against Acetylcholinesterase of 79.7 µM. For the same molecule, the Time in the assay on Mus musculus [2] is 14.82 s; with Mus musculus [3] it was 8.11 s. In the assay on Mus musculus [4], the result was Active. The inhibition came to 67.6% in [5]; 66.1% in assay [6]; 65.3% in [7]; 56.3% in assay [8]; 53.3% in assay [9].

On Acetylcholinesterase, `O=C(Oc1cccc(/C=C2\Cc3ccccc3C2=O)c1)c1ccc(F)cc1` returned an IC50 of 40.6 µM. In addition, the Time is given as 22.06 s in the assay on Mus musculus [2] and 9.9 s in the assay on Mus musculus [3]. Also, the result with Mus musculus [4] was Active. Moreover, the inhibition turned out to be 33.9% in assay [5]; 35.5% in assay [6]; 38.7% in assay [7]; 51.6% in assay [8]; 54.8% in assay [9].

Regarding `COc1ccc(C(=O)Oc2cccc(/C=C3\Cc4ccccc4C3=O)c2)cc1`, 38.9 µM corresponded to half-maximal inhibition on Acetylcholinesterase (IC50). For the same molecule, the Time is on record as 14.82 s with Mus musculus [2] and 7.11 s with Mus musculus [3]. Moreover, the result in the assay with Mus musculus [4] was Active. The inhibition in assay [5] came to 30.6%; in assay [6], 32.2%; in [7], 33.9%; in [8], 41.9%; in [9], 48.4%.

For the molecule `COc1cc2c(cc1OC)C(=O)C(CC1CCN(CC(=O)Cc3nc4ccc([N+](=O)[O-])cc4s3)CC1)C2` (stereo not given), the inhibition in [1] was 5.9%.

As for `COc1ccc(NC(=O)CN2CCC(CC3Cc4cc(OC)c(OC)cc4C3=O)CC2)cc1` (stereo not given), the inhibition in assay [1] amounted to 12.8%.

For `COc1cc2c(cc1OC)C(=O)C(CC1CCN(CC(=O)Cc3nc4ccccc4s3)CC1)C2` (stereo not given), the inhibition in assay [1] was found to be 4.62%.

With `O=C(Oc1cccc(/C=C2\Cc3ccccc3C2=O)c1)c1ccccc1`, the IC50 at Acetylcholinesterase worked out at 34.3 µM. For the same molecule, the Time in the assay on Mus musculus [2] worked out at 16.01 s; with Mus musculus [3] it was 10.01 s. For the same molecule, the result in the assay on Mus musculus [4] was Active. In addition, the inhibition in assay [5] stood at 30.6%; in assay [6], 27.4%; in assay [7] it was 37.1%; in assay [8], 48.4%; in [9], 67.7%.

At Acetylcholinesterase, `O=C(Oc1cccc(/C=C2\Cc3ccccc3C2=O)c1)c1cccc(OC(F)(F)F)c1` yielded a 50% inhibitory concentration (IC50) of 12.3 µM. In addition, the Time in the assay on Mus musculus [2] stood at 27.67 s; with Mus musculus [3], 12.01 s. The result with Mus musculus [4] was Active. Moreover, the inhibition in assay [5] amounted to 73.6%; in assay [6], 72.1%; in [7] it was 64.6%; in [8], 91.7%; in assay [9], 78.2%.

In assay [1], `COc1cc2c(cc1OC)C(=O)C(CC1CCN(CC(=O)Nc3ccc([N+](=O)[O-])cc3)CC1)C2` (stereo not given) had an inhibition of 8.67%.

For `COc1cc2c(cc1OC)C(=O)C(CC1CCN(CC(=O)Cc3nc4ccc(C)cc4s3)CC1)C2` (stereo not given), the inhibition in [1] came to 5.82%.

As to `COc1cc2c(cc1OC)C(=O)C(CC1CCN(Cc3ccccc3)CC1)C2` (stereo not given) [DONEPEZIL], the Time with Mus musculus [2] amounted to 17.67 s; in the assay on Mus musculus [3], 11.52 s. Moreover, in the assay on Mus musculus [4], the result was Active.

`COc1cc2c(cc1OC)C(=O)C(CC1CCN(CC(=O)Cc3nc4ccc(Cl)cc4s3)CC1)C2` (stereo not given) had an inhibition in assay [1] of 2.13%.
